Assay results published in patent publication US5298621A, “Oligopeptide derivatives of ipoxantine endowed with immunomodulating activity and pharmaceutical compositions containing same” (Sigma-Tau Industrie Farmaceutiche Riunite S.p.A., priority 1990, dated 1994).

Assays:
Format in all cases: in vivo
[1] = system: plaque-forming cells (PFC) in the spleen of SRBC-immunized mice; test: Primary antibody production (Jerne test) in the spleen of SRBC immunized mice
Protocol: Test 1 Assessment of the effect of ST 657 and ST 789 on the primary antibody production (Jerne test) in the spleen of SRBC (Sheep Red Blood Cells) immunized mice.
Male B6 D2 F1 mice (Charles River, Italy) aged 7-8 weeks (6 animals per group) were used. In this test, the animals were examined separately.
The compounds were administered i.p. at the doses of 2.5 and 25 mg/kg (single administration) the same day of immunization (Table 1) or, at the dose of 2.5 mg/kg/day (repeated administrations), at days -2, 0 and +2 (immunization at day 0) (Table 2).
The experimental procedure has been described by Jerne, N.K. et al, Transpl. Rev., 18, 130 (1974). In particular, the animals were immunized by i.p. administrations of a SRBC suspension (1×10^7 cells/mouse in 0.2 mL of sterile saline).
5 days following treatment, the spleens were aseptically excised from the sacrificed animals.
The concentration of the splenocytes obtained from the spleen was adjusted to 1×10^7 cells/mL. Aliquots of 0.1 mL of suspension were mixed with warm agar-Hank's (2 mL) and 10% SRBC in PBS buffer (0.2 mL), seeded in Petri dishes and incubated at 37° C. for 60 minutes (samples tested in triplicates). Following addition of complement (2 mL of guinea pig serum diluted 1:10 in Tris buffer), Petri dishes were further incubated at 37° C. for 30 minutes. In the presence of complement, the antibody-secreting cells of splenocytes extracted from the spleens of SRBC-immunized mice cause a hemolytic reaction. This reaction brings about the formation of lytic plaques in the samples.
The results obtained are expressed as follows: […]
(a) number of plaque-forming cells (PFC) out of 10^6 cells;
(b) number of plaque-forming cells in the whole spleen.
The data obtained are processed with Dunnett's test (Biostatistics in Pharmacology, vol. II, Pergamon Press) to assess the statistical significance of differences recorded between groups of treated and control animals.

Salmonella typhimurium = test: Protective effect in immunodepressed mice experimentally infected with Salmonella typhimurium; conditions: Salmonella typhimurium 1 × 10^3 cells
Text: (§1) Test 2 Assessment of the protective effect induced by ST 657, ST 733, ST 754 and ST 789 on immunodepressed mice experimentally infected.
(§2) Male CD1 mice (Charles River, Italy) of different ages were used: mice aged 6 and 12 weeks infected with Klebsiella and mice aged 7 weeks infected with Salmonella (10 mice per group).
(§3) Systemic infection in mice was induced via i.p. inoculum of either a pathogenic strain of Klebsiella (K. pneumoniae) or a pathogenic strain of Salmonella (S. typhimurium), which were able to provoke death of the animals within 5 and 20 days, respectively, following the challenge.
(§4) Infective doses prepared from overnight broth cultures corresponding to 1.5×10^5 and 3.5×10^5 live cells of K. pneumoniae, and 1×10^3 live cells of S. typhimurium were suspended in 0.2 mL of 5% gastric mucine and then injected.
(§5) The immunosuppressor (cyclophosphamide) was administered i.p. in 0.2 mL of sterile saline, 100 mg/kg, 5 days before the infective challenge.
(§6) The compounds were administered i.p., 0.25 and 25 mg/kg/day, from day -5 to day -1 (challenge at day 0).
(§7) The results obtained are expressed as % mortality and statistically processed with the Fisher's exact test (Biostatistics in Pharmacology, vol. II, Pergamon Press).

Sarcoma S 180 cells = test: Protective effect in S 180 Sarcoma-bearing mice; conditions: for Dead/total / MST (mean survival time calculated by the median and the first interquartile range): 0.25 mg/kg i.p. from day +1 to day +10; for Weight control (x ± S.E.): 0.25 mg/kg/day i.p. day +1 to +10, in g (unit assumed); for number of surviving animals at the indicated day / animals survived (footnote, end of observation): group of 9, 0.25 mg/kg/day; for animals survived (footnote, end of observation): after day +26
Protocol: Test 4 Assessement of the protective effect of ST 657 and ST 789 in tumor-bearing mice.
Male DBA/2 mice and male CD1 mice (Charles River), both aged 6 weeks, were used.
CD1 mice were inoculated i.p. with 1×10^3 Sarcoma S 180 cells (ATCC, loc. cit.) in 0.1 mL of Hank's medium.
The compounds were adminstered i.p. in sterile saline (0.25 mg/kg/day) from day +1 to day +10 (tumor transplantation at day 0).
Also the body weight of the animals was monitored, from day 0 to day +16 for the L 1210 leukemia-bearing mice, and from day 0 to day +21 for the S 180 sarcoma-bearing mice.
Monitoring of body weight was conducted in order to evaluate the evolution of the neoplastic process. Compounds activity was assessed as Mean Survival Time (MST).

K. pneumoniae = test: Protective effect in immunodepressed mice experimentally infected with K. pneumoniae; conditions: for % Mortality: cyclophosphamide immunodepressed
Text: as §1, §2, §3, §4, §5, §6, §7

[2] = 25 mg/kg i.p., single administration on the day of immunization
[3] = 0.25 mg/kg/day i.p. day -5 to -1
[4] = K. pneumoniae 1.5 × 10^5 cells, animals aged 6 weeks, 0.25 mg/kg/day i.p. day -5 to -1
[5] = K. pneumoniae 1.5 × 10^5 cells, animals aged 6 weeks, 25 mg/kg/day i.p. day -5 to -1
[6] = K. pneumoniae 3.5 × 10^5 cells, animals aged 12 weeks, 0.25 mg/kg/day i.p. day -5 to -1
[7] = K. pneumoniae 3.5 × 10^5 cells, animals aged 12 weeks, 25 mg/kg/day i.p. day -5 to -1
[8] = 2,5 mg/kg i.p., single administration on the day of immunization
[9] = 2,5 mg/kg/day i.p. at days -2, 0, +2 (immunization at day 0)

Row | Compound | PFC/10^6 cells (x and ranges of variation) [1, 2] | PFC/spleen (x and ranges of variation) [1, 2] | % Mortality (Salmonella typhimurium; [3]) [%] | % Mortality (Salmonella typhimurium; 25 mg/kg/day i.p. day -5 to -1) [%] | Dead/total (Sarcoma S 180 cells) | MST (mean survival time calculated by the median and the first interquartile range) (Sarcoma S 180 cells) | Weight control (x ± S.E.) (Sarcoma S 180 cells; Day 0) | Weight control (x ± S.E.) (Sarcoma S 180 cells; Day 2) | Weight control (x ± S.E.) (Sarcoma S 180 cells; Day 4) | Weight control (x ± S.E.) (Sarcoma S 180 cells; Day 7) | Weight control (x ± S.E.) (Sarcoma S 180 cells; Day 9) | Weight control (x ± S.E.) (Sarcoma S 180 cells; Day 11) | Weight control (x ± S.E.) (Sarcoma S 180 cells; Day 14) | Weight control (x ± S.E.) (Sarcoma S 180 cells; Day 16) | Weight control (x ± S.E.) (Sarcoma S 180 cells; Day 21) | number of surviving animals at the indicated day (Sarcoma S 180 cells; Day 21) | animals survived (footnote, end of observation) (Sarcoma S 180 cells) | % Mortality (K. pneumoniae; [4]) [%] | % Mortality (K. pneumoniae; [5]) [%] | % Mortality (K. pneumoniae; [6]) [%] | other results
1 | N=C(N)NCCC[C@H](NC(=O)OCCCCCn1cnc2c(=O)[nH]cnc21)C(=O)O [ST 789, N-5-(ipoxantin-9-yl) pentyloxycarbonylarginine, reference compound] | 339 (318-360) PFC/10^6 cells | 58137 (54505-62010) PFC/spleen | 10 | 20 | 8/9 | 22.0 (20.5-≥25.5) | 21.8 ± 0.5 | 22.4 ± 0.5 | 24.3 ± 0.6 | 25.8 ± 0.7 | 26.9 ± 0.8 | 29.2 ± 1.2 | 33.1 ± 2.0 | 34.0 ± 2.0 | 32.8 ± 2.2 | 5 | One | 50 | 40 | 50 | % Mortality (K. pneumoniae; [7]): 60%
2 | N-5-(ipoxantin-9-yl) pentyloxycarbonyl glycyl L-aspartate disodium salt [ST 657] | 422 (403-443) PFC/10^6 cells | 61276 (54294-63323) PFC/spleen | 0 | 0 | 5/9 | 26.0 (20.5-≥47.0) | 22.2 ± 0.3 | 22.0 ± 0.6 | 23.9 ± 0.4 | 26.1 ± 0.4 | 27.3 ± 0.5 | 28.6 ± 0.6 | 31.2 ± 1.0 | 31.4 ± 1.1 | 32.9 ± 1.0 | 6 | 4 | 50 | 20 | 33 | PFC/10^6 cells (x and ranges of variation) [1, 8]: 393 (368-420) PFC/10^6 cells; PFC/spleen (x and ranges of variation) [1, 8]: 62356 (59939-64871) PFC/spleen; PFC/10^6 cells (x and ranges of variation) [1, 9]: 416 (372-465) PFC/10^6 cells; PFC/spleen (x and ranges of variation) [1, 9]: 67195 (59781-75529) PFC/spleen; increase of PFC number with respect to control (in words) ([1]; comparison with ST 789): more active than ST 789; MST / protection in tumor-bearing mice (in words) (Sarcoma S 180 cells; comparison with ST 789, S 180 and L 1210 tables): higher MST and/or a better protection than ST 789; % Mortality (K. pneumoniae; [7]): 60%; protective effect in immunodepressed infected mice (in words) (K. pneumoniae; comparison with ST 789, K. pneumoniae and S. typhimurium tables): protective effect more potent than ST 789
